± gives the expanded uncertainty stated by the source.
Experiment: xn = mol fraction of the nth substance listed
Conditions: 101 kPa, Liquid; for viscosity: Capillary tube (Ostwald / Ubbelohde) method; for mass density: Vibrating tube method

C1C[C@@H]2[C@H]3CC[C@H](C3)[C@@H]2C1 [exo-tetrahydrodicyclopentadiene] + CCN(CC)CC
Conditions | mass density, 298.15 K [kg/m3] | mass density, 303.15 K [kg/m3] | mass density, 308.15 K [kg/m3] | mass density, 313.15 K [kg/m3] | mass density, 323.15 K [kg/m3] | viscosity, 298.15 K [mPa·s] | viscosity, 303.15 K [mPa·s] | viscosity, 308.15 K [mPa·s] | viscosity, 313.15 K [mPa·s] | viscosity, 323.15 K [mPa·s]
x2 = 0 | 931.29 ± 0.76 | 927.38 ± 0.75 | 923.46 ± 0.75 | 919.54 ± 0.75 | 911.7 ± 0.74 | 2.8 ± 0.043 | 2.549 ± 0.039 | 2.332 ± 0.036 | 2.124 ± 0.033 | 1.811 ± 0.028
x2 = 0.1347 | 906.47 ± 0.64 | 902.17 ± 0.64 | 898.15 ± 0.64 | 894.12 ± 0.63 | 885.86 ± 0.63 | 2.034 ± 0.031 | 1.871 ± 0.028 | 1.714 ± 0.026 | 1.57 ± 0.024 | 1.36 ± 0.02
x2 = 0.2521 | 883.66 ± 0.56 | 879.54 ± 0.56 | 875.44 ± 0.55 | 871.32 ± 0.55 | 863.09 ± 0.54 | 1.535 ± 0.023 | 1.421 ± 0.021 | 1.324 ± 0.019 | 1.217 ± 0.018 | 1.063 ± 0.016
x2 = 0.365 | 861.16 ± 0.49 | 856.98 ± 0.49 | 852.8 ± 0.48 | 848.59 ± 0.48 | 840.22 ± 0.48 | 1.188 ± 0.017 | 1.109 ± 0.016 | 1.035 ± 0.015 | 0.955 ± 0.014 | 0.842 ± 0.012
x2 = 0.4709 | 839.56 ± 0.44 | 835.31 ± 0.43 | 831.04 ± 0.43 | 826.75 ± 0.43 | 818.22 ± 0.43 | 0.961 ± 0.014 | 0.893 ± 0.013 | 0.829 ± 0.012 | 0.77 ± 0.011 | 0.69 ± 0.01
x2 = 0.5711 | 818.66 ± 0.39 | 814.33 ± 0.39 | 809.98 ± 0.39 | 805.62 ± 0.38 | 796.93 ± 0.38 | 0.779 ± 0.011 | 0.738 ± 0.01 | 0.691 ± 0.01 | 0.649 ± 0.009 | 0.578 ± 0.008
x2 = 0.6683 | 798.2 ± 0.34 | 793.7 ± 0.34 | 789.27 ± 0.34 | 784.85 ± 0.34 | 775.97 ± 0.34 | 0.653 ± 0.009 | 0.618 ± 0.008 | 0.583 ± 0.008 | 0.547 ± 0.008 | 0.492 ± 0.007
x2 = 0.7585 | 778.5 ± 0.31 | 773.97 ± 0.31 | 769.46 ± 0.31 | 764.95 ± 0.31 | 755.83 ± 0.31 | 0.55 ± 0.007 | 0.524 ± 0.007 | 0.503 ± 0.007 | 0.463 ± 0.006 | 0.431 ± 0.006
x2 = 0.8414 | 759.95 ± 0.28 | 755.41 ± 0.28 | 750.85 ± 0.28 | 746.25 ± 0.28 | 737.14 ± 0.28 | 0.476 ± 0.006 | 0.455 ± 0.006 | 0.433 ± 0.006 | 0.406 ± 0.006 | 0.373 ± 0.005
x2 = 0.9136 | 743.67 ± 0.26 | 739.07 ± 0.26 | 734.45 ± 0.27 | 729.79 ± 0.27 | 720.56 ± 0.27 | 0.419 ± 0.006 | 0.399 ± 0.005 | 0.38 ± 0.005 | 0.368 ± 0.005 | 0.327 ± 0.004
